Data taken from the supplement of paper PMC8671470.

How the values were obtained:
Conditions in all cases: 72 h
BV-173 [1] = system: BV-173
Summary of the method: (§1)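 Fifteen myeloid leukaemia lines in RPMI 1640 were treated for 72 h at 37 °C and 5% CO2 with five tenfold doses from 1 to 10,000 nM, in duplicate. ATP luminescence was normalised to vehicle and to a positive control at 10 µM, then fitted with a four-parameter log-logistic model. The IC50 came from these fits.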

HEL = system: HEL
Summary of the method: as §1

HL-60 [2] = system: HL-60
Summary of the method: as §1

K-562 [3] = system: K-562
Summary of the method: as §1

KCL-22 [4] = system: KCL-22
Summary of the method: as §1

KG-1 [5] = system: KG-1
Summary of the method: as §1

KU-812 [6] = system: KU-812
Summary of the method: as §1

LAMA-84 [7] = system: LAMA-84
Summary of the method: as §1

ML-2 [8] = system: ML-2
Summary of the method: as §1

MOLM-13 [9] = system: MOLM-13
Summary of the method: as §1

MV4-11 [10] = system: MV4-11
Summary of the method: as §1

Mono-Mac-6 = system: Mono-Mac-6
Summary of the method: as §1

NOMO-1 [11] = system: NOMO-1
Summary of the method: as §1

SHI-1 = system: SHI-1
Summary of the method: as §1

THP-1 [12] = system: THP-1
Summary of the method: as §1

HL-60 [13] = assay: cell viability (% survival relative to DMSO control); higher = less cytotoxic
Summary of the method: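 Area under the curve, where listed, was derived from four-parameter log-logistic fits with drc and PharmacoGx. These fits used CellTiter-Glo viability from HL-60 cells in RPMI 1640 with 10% FBS, normalised to DMSO wells and wells holding 10 μM proteasome inhibitor. The full library was rescreened on 384-well plates in duplicate at five tenfold concentrations, 1–10,000 nM, with DMSO or 100 nM of one of three metabolic inhibitors, for 72 h at 37 °C, 5% CO2.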

BV-173 [14] = assay: cell viability (% survival relative to DMSO control, bortezomib = 0%); higher = less cytotoxic
Summary of the method: (§2)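 After 72 h at 37 °C with 5% CO2, cell viability in 384-well plates was measured by CellTiter-Glo luminescence. The plates held compounds pre-printed at 1, 10, 100, 1000 or 10000 nM in duplicate, and cells from 10 AML and 5 CML lines seeded at densities titrated to linear growth. Percent survival is the duplicate mean, normalised to vehicle as 100% and a 10 µM positive control as 0%.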

HL-60 [15] = assay: as above
Summary of the method: as §2

K-562 [16] = assay: as above
Summary of the method: as §2

KCL-22 [17] = assay: as above
Summary of the method: as §2

KG-1 [18] = assay: as above
Summary of the method: as §2

KU-812 [19] = assay: as above
Summary of the method: as §2

LAMA-84 [20] = assay: as above
Summary of the method: as §2

ML-2 [21] = assay: as above
Summary of the method: as §2

MOLM-13 [22] = assay: as above
Summary of the method: as §2

MV4-11 [23] = assay: as above
Summary of the method: as §2

NOMO-1 [24] = assay: as above
Summary of the method: as §2

THP-1 [25] = assay: as above
Summary of the method: as §2

Cc1cn([C@H]2C[C@H](O)[C@@H](COP(=O)(O)OP(=O)(O)O)O2)c(=O)[nH]c1=O [Thymidine diphosphate]
Conditions | IC50 (cell viability) [µM]
BV-173 [1] | 4.03
HEL | > 10
HL-60 [2] | > 10
K-562 [3] | > 10
KCL-22 [4] | > 10
KG-1 [5] | > 10
KU-812 [6] | > 10
LAMA-84 [7] | > 10
ML-2 [8] | > 10
MOLM-13 [9] | > 10
MV4-11 [10] | > 10
Mono-Mac-6 | > 10
NOMO-1 [11] | > 10
SHI-1 | > 10
THP-1 [12] | > 10

cell viability [%], HL-60 [13]
Conditions | 0.001 µM | 0.01 µM | 0.1 µM | 1 µM | 10 µM
co-treatment: AZD3965 100 nM | 97.44 | 97.9 | 101 | 102 | 98.5
co-treatment: DMSO vehicle | 101 | 100.1 | 97.7 | 101 | 95.1
co-treatment: GSK2194069 100 nM | 104.9 | 75.9 | 97.8 | 104 | 95.3
co-treatment: pictilisib 100 nM | 105 | 94 | 106 | 111 | 89.1

cell viability [%]
Conditions | 1 nM | 10 nM | 100 nM | 1000 nM | 10000 nM
BV-173 [14] | 92.3 | 83.5 | 98.2 | 78 | 39
HL-60 [15] | 88.6 | 85.2 | 87.7 | 109 | 104
K-562 [16] | 104 | 91.1 | 105 | 100 | 99.6
KCL-22 [17] | 111 | 89.8 | 98.3 | 97.7 | 85.6
KG-1 [18] | 101 | 95.2 | 97.5 | 95.6 | 104
KU-812 [19] | 88.2 | 93.6 | 109 | 96.9 | 102
LAMA-84 [20] | 97.1 | 97.9 | 106 | 94.5 | 86.7
ML-2 [21] | 95.6 | 87.9 | 95.5 | 96.4 | 106
MOLM-13 [22] | 108 | 92.1 | 110 | 105 | 103
MV4-11 [23] | 95.7 | 87.8 | 98.6 | 102 | 96.4
NOMO-1 [24] | 98.1 | 99.8 | 100 | 98.6 | 95.8
THP-1 [25] | 99 | 92.5 | 95.8 | 95.7 | 99.3

CN(C)c1cc(NC(=O)CNC(C)(C)C)c(O)c2c1C[C@H]1C[C@H]3[C@H](N(C)C)C(=O)C(C(N)=O)C(=O)[C@@]3(O)C(=O)C1C2=O (stereo not given in full) [Tigecycline]
Conditions | IC50 (cell viability) [µM]
BV-173 [1] | > 10
HEL | > 10
HL-60 [2] | > 10
K-562 [3] | > 10
KCL-22 [4] | > 10
KG-1 [5] | > 10
KU-812 [6] | > 10
LAMA-84 [7] | > 10
ML-2 [8] | > 10
MOLM-13 [9] | > 10
MV4-11 [10] | > 10
Mono-Mac-6 | > 10
NOMO-1 [11] | > 10
SHI-1 | > 10
THP-1 [12] | > 10

cell viability [%], HL-60 [13]
Conditions | 0.001 µM | 0.01 µM | 0.1 µM | 1 µM | 10 µM
co-treatment: AZD3965 100 nM | 103 | 98.51 | 106 | 103 | 101
co-treatment: DMSO vehicle | 102 | 102.7 | 105 | 101.5 | 105
co-treatment: GSK2194069 100 nM | 101.8 | 96.3 | 101 | 96.7 | 103
co-treatment: pictilisib 100 nM | 97.3 | 100 | 103.3 | 101.8 | 102

cell viability [%]
Conditions | 1 nM | 10 nM | 100 nM | 1000 nM | 10000 nM
BV-173 [14] | 119 | 107 | 97.4 | 84 | 83.4
HL-60 [15] | 153 | 81.2 | 69.6 | 110 | 75.6
K-562 [16] | 102 | 93.4 | 92.1 | 90.6 | 83.4
KCL-22 [17] | 108 | 95 | 96.4 | 94.6 | 79.4
KG-1 [18] | 111 | 82.5 | 104 | 94.8 | 66.5
KU-812 [19] | 102 | 97 | 95.8 | 94.4 | 86.8
LAMA-84 [20] | 105 | 94.3 | 105 | 102 | 90
ML-2 [21] | 118 | 93.4 | 90.8 | 96.4 | 63
MOLM-13 [22] | 119 | 84 | 90.8 | 96 | 88.9
MV4-11 [23] | 117 | 89.3 | 101 | 88.3 | 93.2
NOMO-1 [24] | 106 | 97.7 | 87 | 101 | 99.3
THP-1 [25] | 107 | 100 | 104 | 105 | 105
